Experimental data published in patent publication US10792260B2, “Retinopathy treatment” (CHS Pharma, Inc., priority 2013, dated 2020).

How the values were obtained:
ARPE19 cells [1] = assay: TBHP induced oxidative stress, cell viability by MTS assay; conditions: for protection against TBHP damage as measured by cell viability: 24 hours pretreatment, varying concentrations of TBHP
Method: Cell culture studies using RPE cells—For cell culture experiments human RPE cell line ARPE19 (ATCC # CRL 2302) purchased from American Type Culture Collection (Rockville, Md.) was used. Cells were maintained in DMEM F-12 supplemented with L-glutamine. The culture media also contained 10% fetal bovine serum, 100 units/ml penicillin and 100 ug/ml streptomycin at 37 C and 5% CO2. Cells from passages two to five were treated with either no drug or a range of concentrations of the experimental drugs prior to exposing them to oxidative stress. Oxidative stress was induced chemically by adding tert-butyl hydrogen peroxide (TBHP) or by exposing the cells to UVB light. ARPE19 cells were plated in 96 well plates at a concentration of 10,000 cells/well. Change in cellular viability was measured using the MTS assay kit from Promega (Madison, Wis.).
Experiments involving TBHP induced oxidative stress—ARPE19 cells were grown for 24 hours in 96 well plates in DMEM F-12 complete media. Then they were either treated with no drug or pre-incubated with the experimental drug for 24 hours. The next day the cells were exposed to a range of concentrations (175 μM to 300 μM) of TBHP for 24 hours. On the following day cell viability was measured by the MTS assay (Promega) according to the manufacturer's protocol and which was measured by absorbance at 490 nm using a colorimetric microtiter plate reader (SpectraMax Plus 384; Molecular Devices).
(§2) Cell viability assays—Cellular viability was determined using the CellTiter 96 Aqueous One Cell Proliferation Assay from Promega (Madison, Wis.) as described elsewhere (Marchetti et al, 2009). This assay contains a tertrazolium salt that is converted to formazan dye by the activity of mitochondrial dehydrogenases. The change in color imparted by this conversion was detected by measuring absorbance at 490 nm using a colorimetric microtiter plate reader (Spectramax Plus 384, Molecular Devices).
(§3) Statistical analysis—Unless otherwise mentioned, results of all cell viability experiments represent the mean of three replicates of a representative experiment. The error bars indicate standard deviations. The means were compared using standard t-test and P values <0.05 were considered to be statistically significant.

ARPE19 cells [2] = assay: UVB radiation induced damage, cell viability by MTS assay
Method: Cell culture studies using RPE cells—For cell culture experiments human RPE cell line ARPE19 (ATCC # CRL 2302) purchased from American Type Culture Collection (Rockville, Md.) was used. Cells were maintained in DMEM F-12 supplemented with L-glutamine. The culture media also contained 10% fetal bovine serum, 100 units/ml penicillin and 100 ug/ml streptomycin at 37 C and 5% CO2. Cells from passages two to five were treated with either no drug or a range of concentrations of the experimental drugs prior to exposing them to oxidative stress. […] ARPE19 cells were plated in 96 well plates at a concentration of 10,000 cells/well. Change in cellular viability was measured using the MTS assay kit from Promega (Madison, Wis.).
Exposure of RPE cells to UVB radiation—For UV radiation assays, the ARPE19 cells were plated in 96 well plates. After 24 hours of incubation with or without our drug the cells were exposed to UVB light (Ultraspec 2000, Pharmacia Biotech) that emit wavelengths at a range of 290 nm to 370 nm. UVB light at intensities of either 800 mj/cm2 or 1200 mj/cm2 were used for our experiments. The duration of exposure of the two energy levels were determined using the formula: Hλ=t×Eλ, where Hλ is the energy level (J/cm2) t is the duration of exposure in seconds and the Eλ is the irradiance (W/cm2) of the UVB source. Irradiance was measured at 1.3 W/cm2, and the exposure times for energy levels of 800 mj/cm2 and 1200 mj/cm2 were calculated to be 9 minutes 14 seconds and 14 minutes 24 seconds, respectively. Immediately after the UVB exposure, the media was replaced with fresh complete DMEM F-12 medium and after 24 hours of incubation at 37° C. and 5% CO2, cellular viability was measured using the MTS assay.
as §2, §3

iNOS = assay: Western blotting of preconditioning marker iNOS in ARPE19 cells; type: cell-based, human; conditions: RPE cells pretreated for 48 hours, 200 μM
Method: (§1) Western blotting protocol—Western blotting was carried out on proteins isolated from ARPE19 cells cultured in 60 mm dishes with no drug or 200 μM sulindac or a combination of 200 μM sulindac and 2 μM chelerythrine. Actin and GAPDH were used as control for standardizing protein concentrations. Two late phase preconditioning markers, Hsp27 and iNOS were detected with antibodies (Sant Cruz Biotechnology).

Hsp27 = assay: Western blotting of preconditioning marker Hsp27 in ARPE19 cells; type: cell-based, human; conditions: RPE cells pretreated for 48 hours, 200 μM
Method: as §1

BALB/c mice = assay: Photooxidative stress in vivo study (light damage, intravitreal injection)
Method: Photooxidative stress in vivo study—The procedures for the in vivo experiments conformed to the ARVO Statement for the Use of Animals in Ophthalmic and Vision Research and were approved by the IACUC at FAU. For the in vivo photooxidative stress experiments albino BALB/c mice were divided into two groups. Mice belonging to the control group were kept in normal light of 12 hr light/dark cycle and not injected with any drug. The animals of the experimental group were dark-adapted for 24 hours after which they were anesthetized with ketamine/xylazine and injected intravitrealy with sulindac, total volume injected was 2 μl in each eye. Concentration of injected sulindac was 0.094 μg/μl. To prepare our injection, the sulindac powder was first dissolved in Tris buffer (pH 8.0) at a concentration of 200 mM. This 200 mM stock was further diluted in sterile PBS to get the appropriate dilution required for the injections. The sulindac solution was injected into the right eye and PBS in the left eye. The animals in the experimental group received atropine for pupil dilation followed by exposure to continuous bright white light. The intensity and duration of light exposure was 6000 lux for 24 hours. Following light exposure, animals were kept in normal light cycle for 5 days prior to harvesting the ocular tissues for histological or biochemical analysis.
Biochemical analysis of ocular tissues—After the completion of the treatment, animals were euthanized using isoflurane inhalation and eyes were enucleated. Following enucleation, the lenses were removed and retinas were carefully removed and washed in PBS. The retinas were homogenized in RIPA lysis buffer and total protein was isolated. The retinal protein was used for evaluation of preconditioning markers and rhodopsin through Western blotting.
Analysis of photoreceptor (PR) cell viability—The eyes were enucleated and fixed in 2.5% glutaraldehyde and 2% formaldehyde, bisected along the vertical meridian, embedded, and retinal sections at 50 microns obtained. Photoxidative stress-induced loss of PR cells was quantified in LM sections by counting the number of ONL nuceli from a series of digitized images of retinal sections.

[3] = inhibitor 2 uM added simultaneously with sulindac
[4] = eyes treated prior to light exposure
[5] = intravitreal 2 μl of 0.094 μg/μl before 6000 lux for 24 hours

## CCCCCC(O)CCCC(=O)O (stereo not drawn) [5-HD, 5-hydroxydecanoic acid]
ARPE19 cells [1]; mK(ATP) channel blocker 50 uM or 75 uM co-incubated with sulindac
  reversal of sulindac's protective role against TBHP: almost complete reversal

## CCC(=O)NC[C@H](Cc1ccc(OCCc2nc(-c3ccccc3)oc2C)cc1)N/C(C)=C\C(=O)c1ccc(C(F)(F)F)cc1 [GW 6471]
ARPE19 cells [1]; PPAR alpha antagonist added with sulindac
  effect on sulindac's protection of RPE cells against TBHP induced stress: prevented the protection

## O=c1c2nc(Br)n([C@@H]3O[C@@H]4CO[P@@](O)(=S)O[C@H]4[C@H]3O)c2nc2[nH]c(-c3ccccc3)cn12 [Rp-Br-8-PET-cGMPs]
ARPE19 cells [2]; PKG inhibitor with sulindac
  reversal of protection by sulindac preincubation (UVB damage) on PKG inhibition: significantly reversed

## COc1ccc2c(c[n+](C)c3c4cc5c(cc4ccc23)OCO5)c1OC [chelerythrine]
ARPE19 cells [1]; [3]
  reversal of protective effect of sulindac against TBHP damage: significantly reversed the protective effect
ARPE19 cells [2]; [3]
  reversal of protective effect of sulindac against UV damage: significantly reversed the protective effect

## CC(=O)c1c(O)c(C)c(O)c(Cc2c(O)c3c(c(C(=O)/C=C/c4ccccc4)c2O)OC(C)(C)C=C3)c1O [rottlerin]
ARPE19 cells [2]; inhibitor 3 uM with sulindac
  reversal of the sulindac protection against UVB: no reversal

## CC1=C(CC(=O)O)c2cc(F)ccc2/C1=C\c1ccc(S(C)(=O)=O)cc1 [sulindac sulfone]
ARPE19 cells [2]; 200 uM, in place of sulindac
  protection against UV damage (cell viability): complete protection

## CC1=C(CC(=O)O)c2cc(F)ccc2/C1=C\c1ccc([S+](C)[O-])cc1 (stereo not drawn) [sulindac]
ARPE19 cells [1]; sulindac 125 uM
  protection against TBHP damage as measured by cell viability: essentially complete protection
ARPE19 cells [1]; sulindac 200 uM
  protection against TBHP damage as measured by cell viability: essentially complete protection
iNOS
  induction of iNOS: significant induction
ARPE19 cells [2]; 200 uM, 24 hours pretreatment, 1200 mj UVB
  protection against UVB exposure (cell viability): about 50%
Hsp27
  induction of Hsp27: significant induction
BALB/c mice; [4]
  Hsp27 level in retinal total protein (Western blotting): upregulation
  iNOS level in retinal total protein (Western blotting): upregulation
BALB/c mice; [5]
  Rhodopsin levels by Western blotting, treated eye compared to PBS-treated eye: higher
  protection of photoreceptors against photooxidative stress induced loss of viability (histology): protection of photoreceptors
BALB/c mice; intravitreal 2 μl of 0.094 μg/μl before 6000 lux for 24 hours, histological sections
  thickness of the photoreceptor cell nuclear layer, greater than PBS-treated eye: about 40%

## O=S(=O)(O)c1cc(O)c(O)c(S(=O)(=O)O)c1 [tiron]
ARPE19 cells [1]; ROS scavenger 1 uM or 2 uM coincubated with sulindac
  reversal of sulindac's protection against TBHP: complete reversal
